{"source": "patent US9822342B2", "about": "“Method of efficiently inducing cardiomyocytes” (KYOTO UNIVERSITY, priority 2013, dated 2017)", "type_in_all_cases": "cell-based, human", "key": {"[1]": {"system": "201B7 cell line (iPS cells)", "assay": "Cardiomyocyte induction, conventional method (comparative example); cTNT-positive cells by flow cytometry", "details": "Day 20; 1 μM IWP-3 with 10 ng/mL VEGF Day 4 to Day 8; no dissociation/reaggregation", "description": "Three days before differentiation induction (Day −3), the 201B7 cell line was treated with Collagenase type B solution (Roche) for 5 minutes, and the solution was then removed, followed by treating the cells with 0.25% trypsin-EDTA (Invitrogen) for 2 to 3 minutes. After washing the cells with PBS solution (Nacalai Tesque), the obtained iPS cells were detached with a cell scraper and recovered. The iPS cells were then plated on a well of a Matrigel-coated 6-well plate, and cultured in MEF (mouse fetal fibroblast)-conditioned medium (MEF-CM) for 3 days.\nSubsequently (Day 0), treatment with Collagenase type B solution was carried out for 10 minutes. After removing the solution, the iPS cells were treated with 0.25% trypsin-EDTA for 1 to 2 minutes, and then detached with a cell scraper. STEMPRO 34 (Invitrogen) supplemented with 1% L-glutamine (Invitrogen), 150 μg/mL transferrin (Roche), 50 μg/mL ascorbic acid (Sigma), 3.9×10^−3% MTG (1-Thyoglycerol) (Sigma), 10 μM Rock inhibitor (Y-27632, Wako), and 2 ng/mL BMP4 (R&D) was added to the cells, and the cells were then divided into small clusters by pipetting. The resulting cell clusters were transferred to a well of a low-adhesion […], and culture was carried out at 37° C. under 5% oxygen to prepare embryoid bodies (EBs). […]\n(§1) After the culture (Day 20), the obtained cells were evaluated. […]"}, "[2]": {"system": "201B7 cell line (iPS cells)", "assay": "Modified method for inducing cardiomyocytes (IW); cTNT-positive cells by flow cytometry", "details": "Day 20", "description": "After treatment of the 201B7 cell line with CTK solution (ReproCELL) for 2 minutes, the solution was removed. Subsequently, the cells were treated with Accumax (Innovative Cell Technologies) for 5 minutes, and dissociated into single cells by pipetting. The cells were recovered by centrifugation, and plated on a low-adhesion 96-well dish (Corning) at 2500 cells/well. Culture was carried out at 37° C. under 5% oxygen in STEMPRO 34 supplemented with 1% L-glutamine, 150 μg/mL transferrin, 50 μg/mL ascorbic acid (Sigma), 3.9×10^−3% MTG, 10 μM Rock inhibitor, 2 ng/mL BMP4 (R&D), and 0.50% Matrigel (Growth Factor Reduced), to allow formation of EBs (Day 0). It was found, in this culture, that the efficiency of induction of cardiomyocytes decreases in cases where the EB cells are formed from not more than 1000 cells or not less than 4000 cells per well.\nOn the next day (Day 1), an equal volume of STEMPRO 34 supplemented with 1% L-glutamine, 150 μg/mL transferrin, 50 μg/mL ascorbic acid, 3.9×10^−3% MTG, 18 ng/mL BMP4, 10 ng/mL bFGF, and 12 ng/mL activin A was added to the 96-well plate in which the EBs were cultured, and culture was carried out at 37° C. under 5% oxygen for 3 days.\nSubsequently (Day 4), the obtained EBs were allowed to naturally precipitate, and the medium was removed. […]\nas §1"}, "[3]": {"system": "427F1, 610B1, 604A1, 648A1 and KhES3 cell lines", "assay": "IW and IWDS methods, timing of dissociation/reaggregation (2)", "details": "IW method; dissociation at d2.5 to d4; evaluated at d15", "excerpt": "(§2) In the modified method for inducing cardiomyocytes (IW) and the IWDS method described above, the timing of the dissociation into single cells and the reaggregation carried out on Day 4 was changed to investigate the effect of the change on pluripotent stem cell lines (KhES1 cell line, KhES3 cell line, MYH cell line, 409B2 cell line, 427F1 cell line, 606A1 cell line, 610B1 cell line, 457C1 cell line, 604A1 cell line, and 648A1 cell line) (FIG. 8). The culture from Day 1 in STEMPRO 34 supplemented with 1% L-glutamine, 150 μg/mL transferrin, 50 μg/mL ascorbic acid, 3.9×10^−3% MTG, 18 ng/mL BMP4, 10 ng/mL bFGF, and 12 ng/mL activin A was carried out for various periods within the range of 1.5 days to 5 days. Thereafter, dissociation and reaggregation of the obtained cells were carried out. That is, dissociation of each cell line was carried out at various times between Day 2.5 (d2.5) and Day 6 (d6) after the induction at intervals of 6 hours, followed by reaggregation culture.\n(§3) In the last step, the cells of each cell line were cultured under normal oxygen concentration until d15 in STEMPRO 34 supplemented with 1% L-glutamine, 150 μg/mL transferrin, 50 μg/mL ascorbic acid, 3.9×10^−3% MTG, 10 ng/mL VEGF, and 5 ng/mL bFGF, and evaluated based on the content of cTNT-positive cells."}, "[4]": {"system": "MYH, 409B2, 606A1, 457C1 and KhES1 cell lines", "assay": "IW and IWDS methods, timing of dissociation/reaggregation (2)", "details": "IW method; dissociation at d2.5 to d5; evaluated at d15", "excerpt": "as §2, §3"}}}
{"smiles": "Cc1ccc2nc(NC(=O)CSc3nc4c(c(=O)n3-c3ccc(F)cc3)SCC4)sc2c1", "note": "[IWP-3]", "values": [{"measurement": "content of cTNT-positive cells", "setting": "[1]", "result": 58.6, "unit": "%"}, {"measurement": "content of cTNT-positive cells", "setting": "[2]; dissociation/reaggregation on Day 4, 1 μM IWP-3 with 10 ng/mL VEGF for 4 days", "result": 82.9, "unit": "%"}, {"measurement": "content of cTNT-positive cells", "setting": "[2]; no dissociation into single cells on Day 4, medium with 1 μM IWP-3 and 10 ng/mL VEGF", "result": 69.3, "unit": "%"}, {"measurement": "efficiency of cardiomyocyte induction (content of cTNT-positive cells)", "setting": "[3]", "result": "high efficiency"}, {"measurement": "efficiency of cardiomyocyte induction (content of cTNT-positive cells)", "setting": "[4]", "result": "high efficiency"}]}
